Measurements: patent US6664286B1, “Serotonergic 5ht2 agonists for treating glaucoma” (Alcon Manufacturing, Ltd., priority 1998, dated 2003)
Where two headings read alike, the source gives them in different places.

Key:
5HT2 receptor = 5HT2 receptor (Rattus norvegicus, UniProt P14842); assay: cell-based
Experimental: Confluent cells are exposed for 24-30 hrs to 1.5 μCi [^3H]-myo-inositol (18.3 Ci/mmol) in 0.5 ml of serum-free medium. Cells are then rinsed once with DMEM/F-12 containing 10 mM LiCl prior to incubation with the test agent (or solvent as the control) in 1.0 ml of the same medium for 1 hr at 37° C., after which the medium is aspirated and 1 ml of cold 0.1 M formic acid added to stop the reaction. […] The eluate (4 ml) is collected, mixed with 15 ml scintillation fluid, and the total [^3H]-IPs determined by scintillation counting on a beta-counter.

[1] = tested on: lasered (hypertensive) eyes of conscious cynomolgus monkeys; assay: Acute IOP Response in Lasered (Hypertensive) Eyes of Conscious Cynomolgus Monkeys; assay type: in vivo, cynomolgus monkey; details: topical, one 30 μL aliquot, dose (R)-DOI 100 μg, α-methylserotonin 250 μg, 5-methoxy-α-methyltryptamine 300 μg, serotonin 250 μg
Experimental: Acute IOP Response in Lasered (Hypertensive) Eyes of Conscious Cynomolgus Monkeys
Intraocular pressure (IOP) was determined with an Alcon Pneumatonometer after light corneal anesthesia with 0.1% proparacaine. Eyes were washed with saline after each measurement. After a baseline IOP measurement, test compound was instilled in one 30 μL aliquot to the right eyes only of nine cynomolgus monkeys. Vehicle was instilled in the right eyes of six additional animals. Subsequent IOP measurements were taken at 1, 3, and 6 hours.

rabbit eye = details: cited from earlier work
glaucomatous monkeys = details: cited from earlier work
[2] = man, dosed systemically; cited from earlier work
human subjects = details: cited from earlier work
5HT2 receptor subtypes = details: 5HT2 agonist, rank order of subtypes; cited from earlier work
[3] = rabbit, administered intracamerally

Chain of 5HT2 receptor (P14842 whole entry): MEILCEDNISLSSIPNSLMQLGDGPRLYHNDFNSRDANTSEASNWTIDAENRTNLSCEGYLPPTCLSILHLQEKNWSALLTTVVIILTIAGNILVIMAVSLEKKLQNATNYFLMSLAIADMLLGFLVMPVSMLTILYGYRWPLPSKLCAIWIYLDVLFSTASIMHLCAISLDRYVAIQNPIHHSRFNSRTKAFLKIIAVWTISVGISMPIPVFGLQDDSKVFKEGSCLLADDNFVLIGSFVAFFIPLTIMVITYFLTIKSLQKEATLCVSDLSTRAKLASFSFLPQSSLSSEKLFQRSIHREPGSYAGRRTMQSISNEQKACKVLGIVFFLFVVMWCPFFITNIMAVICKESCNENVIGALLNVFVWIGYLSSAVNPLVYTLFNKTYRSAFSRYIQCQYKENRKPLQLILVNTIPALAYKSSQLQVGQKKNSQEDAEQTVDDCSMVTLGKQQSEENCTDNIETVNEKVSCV

SMILES	Percent IOP Reduction ± SEM, 1 hour after dose [1] [%]	Percent IOP Reduction ± SEM, 3 hours after dose [1] [%]	Percent IOP Reduction ± SEM, 6 hours after dose [1] [%]	effect on IOP (rabbit eye; rabbits, route not stated)	other results
COc1ccc2[nH]cc(CC(C)N)c2c1 (stereo not drawn) [5-Methoxy-α-methyltryptamine, 5-methoxy-α-methyltryptamine]	21.6 ± 5.05	35.2 ± 6.12	33.4 ± 5.39		Emax (5HT2 receptor; A7R5, read-out: Efficacy (Emax, %)): 107%
NCCc1c[nH]c2ccc(C(N)=O)cc12 [5-carboxamidotryptamine]					effect on intraocular pressure (IOP) (rabbit eye; rabbit, topically applied): raise intraocular pressure
COc1ccccc1N1CCN(CCCNc2c(C)c(=O)n(C)c(=O)n2C)CC1 [5-methylurapidil]					effect on IOP (glaucomatous monkeys): lowered IOP
CCCN(CCC)C1CCc2cccc(O)c2C1 (stereo not shown) [8-hydroxy DPAT]				lower IOP	
COc1cc(C[C@@H](C)N)c(OC)cc1I [(R)-DOI, (R)4-iodo-2,5 dimethoxy-α-methyl-benzeneethanamine]	11.0 ± 4.98	25.3 ± 2.97	34.4 ± 4.98		EC50 (5HT2 receptor): 277 ± 35 nM
COc1cc(CC(C)N)c(OC)cc1I (stereo not shown) [DOI]					CNS side effects [2]: cause central nervous system (CNS) side effects
O=C(c1ccc(F)cc1)C1CCN(CCn2c(=O)[nH]c3ccccc3c2=O)CC1 [Ketanserin]				lowers IOP	effect on IOP (human subjects; man, route not stated): lowers IOP
c1ccc2c(c1)OC[C@H](CNCCCOc1ccc3c(c1)OCO3)O2 [MKC-242]				lower IOP	
CC[C@@H](CO)NC(=O)[C@@H]1C=C2c3cccc4c3c(cn4C)C[C@H]2N(C)C1 [Methysergide]				lowered IOP	
COc1cccc(CCc2ccccc2OCC(CN(C)C)OC(=O)CCC(=O)O)c1 (stereo not shown) [Saprogrelate]					effect on IOP (rabbit eye; rabbits, dosed topically or orally): lowers IOP; effect on IOP (human subjects; man, dosed topically or orally): lowers IOP
NCCc1c[nH]c2ccc(O)cc12 [Serotonin, 5-hydroxytryptamine]	13.3 ± 5.31	18.0 ± 5.12	2.0 ± 7.39		blood-aqueous barrier (rabbit eye; [3]): caused breakdown of the blood-aqueous barrier; effect on IOP (rabbit eye; [3]): increase in IOP
CNCCC(Oc1ccc(C(F)(F)F)cc1)c1ccccc1 (stereo not shown) [fluoxetine]					effect on IOP (human subjects; human subjects, oral administration): raises IOP
CC(N)Cc1c[nH]c2ccc(O)cc12 (stereo not drawn) [α-Methylserotonin, α-methyl-serotonin]	14.2 ± 4.39	25.8 ± 5.16	30.8 ± 7.72		receptor subtype selectivity (5HT2 receptor subtypes): 5HT2B>5HT2C>5HT2A
